Measured values from US7476670B2, “Purine derivatives, method for preparing, pharmaceutical compositions and novel use” (Aventis Pharma S.A., priority 2003, dated 2009).
≈ marks a conversion by molar mass, not a printed value. Structures can show the parent of a compound that is named as a salt. Where two headings read alike, the source gives them in different places. Blank lines part the entries; values can stand above or below the compound they belong to.

Assays:
[1] = target: CaCiv1 (Candida albicans, UniProt A0A1D8PH53); assay: Assay for inhibition of CIV-CDK (CIV1) activity; format: biochemical
Text: 1) Assay for Inhibition of CIV-CDK (CIV1) Activity
a) Preparation of the Reagents

[2] = test system: Candida glabrata; assay: Minimum inhibitory concentration in liquid medium, micro method (NCCLS M27-A); format: cell-based; details: Nakaseomyces glabratus; at least 80% inhibition of growth, read after 24-48 h at 37° C., RPMI 1640; read-out: MIC Candida glabrata
Experimental: (§1) The assay is carried out in a final volume of 40 μl; all the reagents are prepared in a buffer: • 50 mM HEPES pH 7.5 • 0.03% triton X100 • 10 mM MgCl2 • 5% Glycerol • 1 mM DTT 10 μl of the 10-times concentrated inhibitor are added to 5 μl of enzyme (75 ng final concentration), and 5 μl of peptide (1 μM final concentration), then 2.5 μl of incubation buffer containing 40 μM ATP and 2.5 μl of radiolabeled ATP, [^33P]ATP (500 nCi), are added. After incubation for 15 minutes at ambient temperature, 10 μl of incubation buffer containing 192 nM of substrate. […] Reference method for broth dilution antifungal susceptibility testing of yeasts. Approved Standard M27-A. NCCLS, Villanova, Pa.); the minimum concentration with which a visible decrease is observed in the cloudiness of the cell growth (at least 80% compared to a control without product) is the Minimum Inhibitory Concentration (MIC) of the antifungal agent with respect to the strain tested.
(§2) RPMI 1640 medium (liquid) without L-glutamine is supplemented with L-glutamine (0.3 g/l or 10.5 ml of a solution at 200 mM) and buffered with 34.54 g/l (0.165 M) of morpholinepropanesulfonic acid (MOPS). The medium is sterilized by filtration. 100 μl of RPMI medium are distributed into each well of a 96-well plate. The appropriate volume. of the antifungal solution is distributed in the first column of the microplate and supplemented with 200 μl of medium. Doubling dilutions are made so as to establish a range of 11 concentrations in each line of the microplate. The 12th well of each row will serve as a growth control. The cell suspension is prepared from a culture (liquid or agar) or from a frozen vial, and is diluted in RPMI medium so as to obtain a cell suspension at 5×10^3−2×10^4 cells/ml. 100 μl of the cell suspension are distributed in the microplate. For all species of Candida, the MIC is read after 24-48 h, and for Cryptococcus and Aspergillus after 48-72 h, of incubation at 37° C. in a normal atmosphere. The MIC is read by visual reading, determining the well which contains the lowest dose of antifungal agent which causes at least 80% inhibition of the growth of the fungus.

[3] = test system: Candida albicans; assay: as above; format: cell-based; details: at least 80% inhibition of growth, read after 24-48 h at 37° C., RPMI 1640, read-out: MIC Candida albicans
Experimental: as §1, §2

[4] = target: JNK3 kinase (Homo sapiens, UniProt P53779); assay: Assay for inhibition of JNK3 activity; format: biochemical; details: fluorescence polarization, ATP 6 μM; read-out: IC50s expressed as micromolar
Experimental: The inhibition of the kinase activity is determined by fluorescence polarization, the JNK3 kinase phosphorylates a peptide detected by adding an anti-phosphopeptide antibody coupled to a fluorescent label.
The assay is carried out in a final volume of 30 μl; all the reagents are prepared in a buffer: • 50 mM HEPES pH 7.5 • 0.03% triton X100 • 10 mM MgCl2 • 5% Glycerol • 1 mM DTT 10 μl of the 10-times concentrated inhibitor are added to 5 μl of enzyme (40 ng final concentration), and 5 μl of incubation buffer containing 100 ng of substrate and 10 μl of ATP (6 μM final concentration) are added.

[5] = target: T1, SRC kinase (Homo sapiens, UniProt P12931); assay: Assay for inhibition of SRC kinase activity; format: biochemical; details: fluorescence polarization, read-out: percentage inhibition at 20 μM
T1 construct: purchased Upstate Biotechnology 14-117
Experimental: 2) Assay for Inhibition of SRC Kinase Activity
The inhibition is determined by fluorescence polarization, the […] kinase phosphorylates a peptide detected by adding an anti-phosphopeptide antibody coupled to a fluorescent label.
The assay is carried out in a final volume of 50 μl; all the reagents are prepared in a buffer: • 25 mM HEPES/NaOH pH 7.6 • 5 mM MgCl2 • 2 mM MnCl2 • 50 μM Na2VO4 5 μl of the 10-times concentrated inhibitor are added to 25 μl of enzyme (12 U/ml final concentration), (Upstate Biotechnology ref 14-117). After incubation for 5 minutes at ambient temperature, 10 μl of PolyGluTyr 4/1 (150 ng/ml final concentration) and 10 μl of ATP (5 μM final concentration) are added. The detection is carried out after incubation for 20 minutes at ambient temperature. • Results obtained expressed as percentage inhibition at 20 μM • Example 8 98% • Example 15 99% • Example 20 99% • Example 24 99% • Example 27 95% • Example 30 99% • Example 32 100% • Example 38 95% 3) Assay for Inhibition of CDK2 Activity

[6] = target: Cyclin Dependent kinase 2 (CDK2) (Homo sapiens, UniProt P24941); assay: Assay for inhibition of CDK2 activity; format: biochemical; details: [33P]ATP, read-out: percentage inhibition at 20 μM
Experimental: The inhibition of the kinase activity of Cyclin Dependent kinase 2 (CDK2) is determined by measuring the phosphorylation of its substrate peptide.
The assay is carried out in a final volume of 50 μl.
The incubation buffer as follows:
• 50 mM Hepes/NaOH pH 7.5 • 10 mM MgCl2 • 1 mM DTT 5 μl of the 10-times concentrated inhibitor are added to 25 μl of incubation buffer containing 0.8 U/μL final concentration of the enzyme; 10 μL of incubation buffer containing 0.0025 mg/ml of peptide substrate are then added and, finally, 10 μL of incubation buffer containing 2 mM ATP and radiolabeled ATP, [^33P]ATP (0.25 μCi), are added. The reaction is stopped after incubation for 10 minutes at 37° C. • Results obtained expressed as percentage inhibition at 20 μM • Example 2 97% • Example 27 97% • Example 30 99% 4) Assay for Inhibition of CDK1 Activity

[7] = test system: Abl kinase; assay: Assay for inhibition of Abl activity; format: biochemical; details: fluorescence polarization
Experimental: The inhibition of the kinase activity is determined by fluorescence polarization, the Abl kinase phosphorylates a peptide detected by adding an anti-phosphopeptide antibody coupled to a fluorescent label.
The assay is carried out in a final volume of 50 μl; all the reagents are prepared in a buffer: • 20 mM Hepes/NaOH pH 7.5 • 5 mM MgCl2 • 100 μM Na2VO4 • 1 mM DTT • 100 μM EDTA/NaOH • 0.01% Brij35 5 μl of the 10-times concentrated inhibitor are added to 25 μl of enzyme (1000 U/ml final concentration), (Calbiochem ref 102555). After incubation for 5 minutes at ambient temperature, 10 μL of PolyGT (400 ng/ml final concentration) and 10 μL of ATP (5 μM final concentration) are added. The detection is carried out after incubation for 15 minutes at 30° C. • Results obtained expressed as percentage inhibition at 20 μM • Example 24 100% • Example 2 100% • Example 32 100% 6) Assay for Inhibition of ZAP Kinase Activity

[8] = CaCiv1 with Cdk2 substrate, [33P]ATP, 30 min ambient temperature, read-out: IC50 as micromolar

Sequence of CaCiv1 (A0A1D8PH53 entry or part of it): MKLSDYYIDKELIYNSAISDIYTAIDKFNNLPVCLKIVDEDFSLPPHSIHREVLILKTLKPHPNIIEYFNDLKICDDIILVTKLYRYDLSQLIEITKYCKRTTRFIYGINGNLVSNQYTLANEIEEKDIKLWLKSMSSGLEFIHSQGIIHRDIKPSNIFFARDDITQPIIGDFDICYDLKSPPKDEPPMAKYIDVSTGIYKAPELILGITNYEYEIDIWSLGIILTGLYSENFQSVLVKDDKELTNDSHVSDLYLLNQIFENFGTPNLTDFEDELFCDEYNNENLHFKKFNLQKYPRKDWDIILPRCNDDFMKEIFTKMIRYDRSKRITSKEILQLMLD
Sequence of JNK3 kinase (P53779 whole entry): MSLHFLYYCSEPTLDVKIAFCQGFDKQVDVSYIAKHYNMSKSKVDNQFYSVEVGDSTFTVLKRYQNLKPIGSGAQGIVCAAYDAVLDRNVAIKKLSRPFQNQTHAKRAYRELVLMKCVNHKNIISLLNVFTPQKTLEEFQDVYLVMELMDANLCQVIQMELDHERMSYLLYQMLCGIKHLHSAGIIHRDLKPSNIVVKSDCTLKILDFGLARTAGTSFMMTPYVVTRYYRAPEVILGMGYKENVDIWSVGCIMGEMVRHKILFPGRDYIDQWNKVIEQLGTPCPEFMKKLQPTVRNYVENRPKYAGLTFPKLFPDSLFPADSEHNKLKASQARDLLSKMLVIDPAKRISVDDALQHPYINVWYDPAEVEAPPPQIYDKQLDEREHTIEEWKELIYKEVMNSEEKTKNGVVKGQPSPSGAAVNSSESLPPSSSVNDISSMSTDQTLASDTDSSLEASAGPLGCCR
T1 sequence (P12931 whole entry): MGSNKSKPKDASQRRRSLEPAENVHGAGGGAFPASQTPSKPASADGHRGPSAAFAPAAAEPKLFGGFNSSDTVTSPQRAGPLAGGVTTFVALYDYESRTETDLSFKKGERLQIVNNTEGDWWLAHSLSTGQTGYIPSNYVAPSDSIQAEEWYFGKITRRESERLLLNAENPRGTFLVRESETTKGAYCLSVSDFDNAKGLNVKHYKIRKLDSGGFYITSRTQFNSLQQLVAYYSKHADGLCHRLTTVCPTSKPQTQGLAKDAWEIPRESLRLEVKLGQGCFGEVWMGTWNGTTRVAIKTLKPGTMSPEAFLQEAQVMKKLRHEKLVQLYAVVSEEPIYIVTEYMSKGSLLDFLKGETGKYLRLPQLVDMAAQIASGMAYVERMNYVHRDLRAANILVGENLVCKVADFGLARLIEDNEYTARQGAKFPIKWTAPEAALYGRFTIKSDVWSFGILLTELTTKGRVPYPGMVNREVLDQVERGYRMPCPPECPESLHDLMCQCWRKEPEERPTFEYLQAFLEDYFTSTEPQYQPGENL

Compound: Cc1cc2ncn(-c3nc(N[C@H]4CC[C@H](N)CC4)nc4[nH]cnc34)c2cc1C [Example 5, Trans-N-[6-(5,6-dimethyl-1H-benzimidazol-1-yl)-9H-purin-2-yl]-1,4-cyclohexanediamine]
IC50 [1, 8]: 1.1 µM | MIC [2]: 64 µg/mL (≈ 170 µM) | MIC [3]: 64 µg/mL (≈ 170 µM)

Compound: N[C@H]1CC[C@H](Nc2nc(N3CCc4cc(Cl)ccc43)c3nc[nH]c3n2)CC1 [Example 7, Trans-N-[6-(5-chloro-2,3-dihydro-1H-indol-1-yl)-9H-purin-2-yl]-1,4-cyclohexanediamine]
IC50 [1, 8]: 3.6 µM

Compound: COc1ccc2c(c1)ncn2-c1nc(N[C@H]2CC[C@H](N)CC2)nc2[nH]cnc12 [Example 15, Trans-N-[6-(5-methoxy-1H-benzimidazol-1-yl)-9H-purin-2-yl]-1,4-cyclohexanediamine dihydrochloride]
IC50 [4]: 0.5 µM | IC50 [1]: 0.3 µM | inhibition at 20 µM [5]: 99%

Compound: N[C@H]1CC[C@H](Nc2nc(-n3ccc4ccccc43)c3nc[nH]c3n2)CC1 [Example 16, Trans-N-[6-(1H-indol-1-yl)-9H-purin-2-yl]-1,4-cyclohexanediamine dihydrochloride]
IC50 [1]: 0.31 µM

Compound: CC[C@@H](CO)Nc1nc(-n2cnc3ccccc32)c2nc[nH]c2n1 [Example 27, (2S)-2-[[6-(1H-benzimidazol-1-yl)-9H-purin-2-yl]amino]-1-butanol]
IC50 [4]: 0.29 µM | IC50 [1, 8]: 4.3 µM | inhibition at 20 µM [6]: 97% | inhibition at 20 µM [5]: 95%

Compound: N[C@H]1CC[C@H](Nc2nc(N3CCc4cc(Br)ccc43)c3nc[nH]c3n2)CC1 [Example 32, Trans-N-[6-(5-bromo-2,3-dihydro-1H-indol-1-yl)-9H-purin-2-yl]-1,4-cyclohexanediamine]
percentage inhibition at 20 μM [7]: 100% | MIC [2]: 64 µg/mL (≈ 149 µM) | MIC [3]: 64 µg/mL (≈ 149 µM) | inhibition at 20 µM [5]: 100%

Results, then the compound that gave them:

IC50 [4]: 0.42 µM | inhibition at 20 µM [5]: 95%
Compound: N[C@H]1CC[C@H](Nc2nc(N3CCc4cc(F)ccc43)c3nc[nH]c3n2)CC1 [Example 38, Trans-N-[6-(5-fluoro-2,3-dihydro-1H-indol-1-yl)-9H-purin-2-yl]-1,4-cyclohexanediamine dihydrochloride]

IC50 [1, 8]: 3.6 µM
Compound: CC(=O)c1ccc2c(c1)CCN2c1nc(N[C@H]2CC[C@H](N)CC2)nc2[nH]cnc12 [Example 39, Trans-1-[1-[2-[(4-aminocyclohexyl)amino]-9H-purin-6-yl]-2,3-dihydro-1H-indol-5-yl]ethanone]

IC50 [1, 8]: 0.2 µM
Compound: N[C@H]1CC[C@H](Nc2nc(N3CCc4ccc(C(F)(F)F)cc43)c3nc[nH]c3n2)CC1 [Example 40, Trans-N-[6-[2,3-dihydro-6-(trifluoro-methyl)-1H-indol-1-yl)-9H-purin-2-yl]-1,4-cyclohexanediamine]

IC50 [1, 8]: 0.95 µM
Compound: N[C@H]1CC[C@H](Nc2nc(N3CCc4cc(NC(=O)Cc5cccs5)ccc43)c3nc[nH]c3n2)CC1 [Example 41, Trans-N-[1-[2-[(4-aminocyclohexyl)amino]-9H-purin-6-yl]-2,3-dihydro-1H-indol-5-yl]-2-thiopheneacetamide]

IC50 [1, 8]: 3.3 µM
Compound: N[C@H]1CC[C@H](Nc2nc(N3CCc4cc(NC(=O)CCc5ccccc5)ccc43)c3nc[nH]c3n2)CC1 [Example 42, Trans-N-[1-[2-[(4-aminocyclohexyl)amino]-9H-purin-6-yl]-2,3-dihydro-1H-indol-5-yl]benzenepropanamide]

IC50 [1, 8]: 4.4 µM
Compound: N[C@H]1CC[C@H](Nc2nc(N3CCc4cc(NC(=O)Nc5ccc(Cl)c(Cl)c5)ccc43)c3nc[nH]c3n2)CC1 [Example 43, Trans-N-[1-[2-[(4-aminocyclohexyl)amino]-9H-purin-6-yl]-2,3-dihydro-1H-indol-5-yl]-N′-(3,4-dichlorophenyl)urea]

IC50 [1, 8]: 0.02 µM
Compound: N[C@H]1CC[C@H](Nc2nc(N3CCc4ccc([N+](=O)[O-])cc43)c3nc[nH]c3n2)CC1 [Example 44, Trans-N-[6-(6-nitro-2,3-dihydro-1H-indol-1-yl)-9H-purin-2-yl]-1,4-cyclohexanediamine]

IC50 [1, 8]: 1.3 µM
Compound: CN(C)c1ccc(NC(=O)Nc2ccc3c(c2)CCN3c2nc(N[C@H]3CC[C@H](N)CC3)nc3[nH]cnc23)cc1 [Example 45, Trans-N-[1-[2-[(4-aminocyclohexyl)amino]-9H-purin-6-yl]-2,3-dihydro-1H-indol-5-yl]-N′-[4-(dimethylamino)phenyl]urea]

IC50 [1, 8]: 2 µM
Compound: Nc1ccc2c(c1)CCN2c1nc(N[C@H]2CC[C@H](N)CC2)nc2[nH]cnc12 [Example 46, Trans-N-[6-(5-amino-2,3-dihydro-1H-indol-1-yl)-9H-purin-2-yl]-1,4-cyclohexanediamine]
